Measured values taken from patent US12721821B2, “Plant essential oil amino acid composition and preparation method therefor” (COCRYSTAL TECHNOLOGY (JIAXING) CO., LTD, priority 2021, dated 2026).

Experiment: Vapor pressure from thermogravimetric analysis (TGA), kept at 80° C. for 100 minutes
Type: physicochemical
Details: calculated from weight loss rate
Experimental: For thermogravimetric analysis (TGA) method, instrument model: Netzsch TG 209F3 thermogravimetric analyzer detection, temperature: 80° C. for 100 minutes, purge gas: 25 mL/min.
Thymol and/or carvacrol and L-proline and/or sarcosine were added to a ball mill according to the compositions shown in Table 2, and vibrated at a vibrating frequency of 30 Hz for a vibrating time of 20 minutes to obtain the compositions. The compositions were subjected to thermogravimetric analysis (TGA), kept at 80° C. for 100 minutes, and the vapor pressure of thymol and/or carvacrol and the compositions thereof were calculated according to the formula:
[formula] • wherein m is the mass of the sample at time t, −dm/dt is the weight loss rate per unit area, p is the saturated vapor pressure, α is the vaporization constant, T is the absolute temperature, R is the gas constant, and M is the molecule mass of the evaporated substance. Under vacuum condition, α=1. α can be considered as a constant when a protective gas is present.

Compound | vapor pressure (Pa) at 80° C. [Pa]
Cc1ccc(C(C)C)cc1O [carvacrol] | 242
Cc1ccc(C(C)C)c(O)c1 [thymol] | 333
